Tested on: MM.1S multiple myeloma cells
Assay: Disseminated MM.1S multiple myeloma model
Type: in vivo, NSG mice
Settings: Example 11
Method: Female NOD severe combined immune deficient (SCID) gamma (NSG) mice 8-9 weeks of age were inoculated with 5×10^6 multiple myeloma MM.1S cells into the tail vein. Randomization by body weight and start of treatment was initiated 7 days post tumor inoculation. The treatment groups are outlined in Table 18. All investigational test articles were formulated in 10 mM citrate pH 6.0, 10% sucrose. Groups 1-10 (n=6/group) were monitored for survival endpoint characterized by >20% body weight loss and clinical signs including lethargy, hind limb paralysis or moribundity. Groups 11-20 (n=3/group) were used for bone marrow harvest and analysis of tumor burden on day 28 post tumor cell inoculation. For all groups, body weights were monitored 1-2×/week.
Tumor burden was assessed and quantified by detection of hCD138 positive (hCD138+) cells in the bone marrow. Bone marrow cells from mouse femur and tibia were pooled and assessed for human CD138+ expression using the Alexa Fluor 647 mouse anti-human CD138 clone MI15 (BD Biosciences #562097) according to the manufacturer's protocol. […] Data was analyzed using Flowjo (Tree Star, Inc., Ashland, Oreg.).
Mean survival, survival delay, and tumor burden, during and at the study endpoint, were analyzed using a one-way analysis of variance (ANOVA) with Dunnett's multiple comparison test. […]

With CC(C)C[C@H](NC(=O)[C@H](Cc1ccccc1)NC(=O)c1cnccn1)B(O)O [Velcade] the mean survival (0.8 mg/kg q7dx2 IP) was 40.6 days.
In the case of “Daratumumab: MM standard of care agent, clinical grade”, the “effect on survival compared to vehicle control” value (3 or 10 mg/kg single IP) is reported as “no significant effect on survival”.

From patent US20220362394A1, “ANTI-BCMA ANTIBODY CONJUGATES” (SUTRO BIOPHARMA, INC., priority 2019, published 2022)
